System: SW 1271 complex spheroids, viability
Assay: Anticancer human tumor SW 1271 cell line growth inhibition [LSD1];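 also: spheroids exposed to agents for 7 days before luminescence read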;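 as to viability, T/C: 100% = DMSO vehicle control viability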
Conditions: for IC50: curve of first compound; for viability, T/C: stronger effect = lower value
Summary of the method: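 Drug combinations with the LSD1 inhibitor iadademstat tested on tumor cells co-cultured as spheroids with endothelial cells and mesenchymal stem cells. Concentrations descended in half-log increments from clinical Cmax or 10 microM.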

[1] = second compound 0.1 µM, first compound 0.0316 µM
[2] = second compound 0.1 µM, first compound 0.1 µM
[3] = second compound 0.1 µM, first compound 0.316 µM
[4] = second compound 0.1 µM, first compound 1 µM
[5] = second compound 0.1 µM, first compound 3.16 µM
[6] = second compound 0.1 µM, first compound 10 µM
[7] = second compound 0.316 µM, first compound 0.0316 µM
[8] = second compound 0.316 µM, first compound 0.1 µM
[9] = second compound 0.316 µM, first compound 0.316 µM
[10] = second compound 0.316 µM, first compound 1 µM
[11] = second compound 0.316 µM, first compound 3.16 µM
[12] = second compound 0.316 µM, first compound 10 µM
[13] = second compound 1 µM, first compound 0.0316 µM
[14] = second compound 1 µM, first compound 0.1 µM
[15] = second compound 1 µM, first compound 0.316 µM
[16] = second compound 1 µM, first compound 1 µM
[17] = second compound 1 µM, first compound 3.16 µM
[18] = second compound 1 µM, first compound 10 µM
[19] = second compound 3.16 µM, first compound 0.0316 µM
[20] = second compound 3.16 µM, first compound 0.1 µM
[21] = second compound 3.16 µM, first compound 0.316 µM
[22] = second compound 3.16 µM, first compound 1 µM
[23] = second compound 3.16 µM, first compound 3.16 µM
[24] = second compound 3.16 µM, first compound 10 µM
[25] = second compound 10 µM, first compound 0.0316 µM
[26] = second compound 10 µM, first compound 0.1 µM
[27] = second compound 10 µM, first compound 0.316 µM
[28] = second compound 10 µM, first compound 1 µM
[29] = second compound 10 µM, first compound 3.16 µM
[30] = second compound 10 µM, first compound 10 µM
[31] = second compound 0.1 µM, first compound 0.00949 µM
[32] = second compound 0.1 µM, first compound 0.03 µM
[33] = second compound 0.1 µM, first compound 0.0949 µM
[34] = second compound 0.1 µM, first compound 0.3 µM
[35] = second compound 0.316 µM, first compound 0.00949 µM
[36] = second compound 0.316 µM, first compound 0.03 µM
[37] = second compound 0.316 µM, first compound 0.0949 µM
[38] = second compound 0.316 µM, first compound 0.3 µM
[39] = second compound 1 µM, first compound 0.00949 µM
[40] = second compound 1 µM, first compound 0.03 µM
[41] = second compound 1 µM, first compound 0.0949 µM
[42] = second compound 1 µM, first compound 0.3 µM
[43] = second compound 3.16 µM, first compound 0.00949 µM
[44] = second compound 3.16 µM, first compound 0.03 µM
[45] = second compound 3.16 µM, first compound 0.0949 µM
[46] = second compound 3.16 µM, first compound 0.3 µM
[47] = second compound 10 µM, first compound 0.00949 µM
[48] = second compound 10 µM, first compound 0.03 µM
[49] = second compound 10 µM, first compound 0.0949 µM
[50] = second compound 10 µM, first compound 0.3 µM

CC1(C)CCC(CN2CCN(c3ccc(C(=O)NS(=O)(=O)c4ccc(NCC5CCOCC5)c([N+](=O)[O-])c4)c(Oc4cnc5[nH]ccc5c4)c3)CC2)=C(c2ccc(Cl)cc2)C1 + NC1CCC(NC2CC2c2ccccc2)CC1
IC50 (second compound 0.1 µM): 2.1 µM
IC50 (second compound 0.316 µM): 2.05 µM
IC50 (second compound 1 µM): 2.04 µM
IC50 (second compound 3.16 µM): 2.17 µM
IC50 (second compound 10 µM): 2.35 µM
viability, T/C [1]: 103%
viability, T/C [2]: 95.6%
viability, T/C [3]: 94.6%
viability, T/C [4]: 92.2%
viability, T/C [5]: 26.9%
viability, T/C [6]: 0.57%
viability, T/C [7]: 100%
viability, T/C [8]: 100%
viability, T/C [9]: 106%
viability, T/C [10]: 96.6%
viability, T/C [11]: 21.6%
viability, T/C [12]: 0.63%
viability, T/C [13]: 89.5%
viability, T/C [14]: 90.5%
viability, T/C [15]: 99.7%
viability, T/C [16]: 103%
viability, T/C [17]: 21.9%
viability, T/C [18]: 0.38%
viability, T/C [19]: 96.4%
viability, T/C [20]: 101%
viability, T/C [21]: 99%
viability, T/C [22]: 97.2%
viability, T/C [23]: 26.9%
viability, T/C [24]: 0.42%
viability, T/C [25]: 92.5%
viability, T/C [26]: 102%
viability, T/C [27]: 97.8%
viability, T/C [28]: 95.4%
viability, T/C [29]: 34.3%
viability, T/C [30]: 0.66%

CC1COCCN1c1cc(C2(S(C)(=N)=O)CC2)nc(-c2ccnc3[nH]ccc23)n1 (stereo not given) + NC1CCC(NC2CC2c2ccccc2)CC1
IC50 (second compound 0.1 µM): > 10 µM
IC50 (second compound 0.316 µM): 8.63 µM
IC50 (second compound 1 µM): > 10 µM
IC50 (second compound 3.16 µM): 9.17 µM
IC50 (second compound 10 µM): 3.28 µM
viability, T/C [1]: 108%
viability, T/C [2]: 103%
viability, T/C [3]: 111%
viability, T/C [4]: 76.2%
viability, T/C [5]: 69.1%
viability, T/C [6]: 58.8%
viability, T/C [7]: 100%
viability, T/C [8]: 95.8%
viability, T/C [9]: 99.1%
viability, T/C [10]: 81.7%
viability, T/C [11]: 59.5%
viability, T/C [12]: 48.3%
viability, T/C [13]: 94.5%
viability, T/C [14]: 101%
viability, T/C [15]: 85.1%
viability, T/C [16]: 68.2%
viability, T/C [17]: 72.3%
viability, T/C [18]: 53.7%
viability, T/C [19]: 82.9%
viability, T/C [20]: 88.7%
viability, T/C [21]: 86.7%
viability, T/C [22]: 75.9%
viability, T/C [23]: 73.4%
viability, T/C [24]: 47.9%
viability, T/C [25]: 97.4%
viability, T/C [26]: 92.3%
viability, T/C [27]: 71.1%
viability, T/C [28]: 78.4%
viability, T/C [29]: 50.9%
viability, T/C [30]: 19.4%

CCN(c1cc(-c2ccc(CN3CCOCC3)cc2)cc(C(=O)NCc2c(C)cc(C)[nH]c2=O)c1C)C1CCOCC1 + NC1CCC(NC2CC2c2ccccc2)CC1
IC50 (second compound 0.1 µM): > 3 µM
IC50 (second compound 0.316 µM): > 3 µM
IC50 (second compound 1 µM): > 3 µM
IC50 (second compound 3.16 µM): > 3 µM
IC50 (second compound 10 µM): > 3 µM
viability, T/C [31]: 98.7%
viability, T/C [32]: 97%
viability, T/C [33]: 93.6%
viability, T/C [34]: 94.8%
viability, T/C (second compound 0.1 µM, first compound 0.949 µM): 82.5%
viability, T/C (second compound 0.1 µM, first compound 3 µM): 75%
viability, T/C [35]: 95%
viability, T/C [36]: 113%
viability, T/C [37]: 98.8%
viability, T/C [38]: 93%
viability, T/C (second compound 0.316 µM, first compound 0.949 µM): 85.5%
viability, T/C (second compound 0.316 µM, first compound 3 µM): 67.3%
viability, T/C [39]: 104%
viability, T/C [40]: 103%
viability, T/C [41]: 107%
viability, T/C [42]: 94.2%
viability, T/C (second compound 1 µM, first compound 0.949 µM): 71.6%
viability, T/C (second compound 1 µM, first compound 3 µM): 75.8%
viability, T/C [43]: 119%
viability, T/C [44]: 107%
viability, T/C [45]: 104%
viability, T/C [46]: 94.6%
viability, T/C (second compound 3.16 µM, first compound 0.949 µM): 76.5%
viability, T/C (second compound 3.16 µM, first compound 3 µM): 56.8%
viability, T/C [47]: 106%
viability, T/C [48]: 105%
viability, T/C [49]: 88.7%
viability, T/C [50]: 95.6%
viability, T/C (second compound 10 µM, first compound 0.949 µM): 72.9%
viability, T/C (second compound 10 µM, first compound 3 µM): 66.9%

Nc1ncn(C2CC(O)C(CO)S2)c(=O)n1 (stereo not given) + NC1CCC(NC2CC2c2ccccc2)CC1
IC50 (second compound 0.1 µM): > 0.3 µM
IC50 (second compound 0.316 µM): > 0.3 µM
IC50 (second compound 1 µM): > 0.3 µM
IC50 (second compound 3.16 µM): > 0.3 µM
IC50 (second compound 10 µM): > 0.3 µM
viability, T/C (second compound 0.1 µM, first compound 0.000949 µM): 97.4%
viability, T/C (second compound 0.1 µM, first compound 0.003 µM): 82.8%
viability, T/C [31]: 92.1%
viability, T/C [32]: 85.2%
viability, T/C [33]: 86.9%
viability, T/C [34]: 82%
viability, T/C (second compound 0.316 µM, first compound 0.000949 µM): 98.1%
viability, T/C (second compound 0.316 µM, first compound 0.003 µM): 92%
viability, T/C [35]: 105%
viability, T/C [36]: 93.6%
viability, T/C [37]: 86.7%
viability, T/C [38]: 82.1%
viability, T/C (second compound 1 µM, first compound 0.000949 µM): 92.8%
viability, T/C (second compound 1 µM, first compound 0.003 µM): 84.5%
viability, T/C [39]: 98.6%
viability, T/C [40]: 101%
viability, T/C [41]: 89.2%
viability, T/C [42]: 72.4%
viability, T/C (second compound 3.16 µM, first compound 0.000949 µM): 94.8%
viability, T/C (second compound 3.16 µM, first compound 0.003 µM): 91.7%
viability, T/C [43]: 77.4%
viability, T/C [44]: 93.9%
viability, T/C [45]: 77.7%
viability, T/C [46]: 82.1%
viability, T/C (second compound 10 µM, first compound 0.000949 µM): 70.8%
viability, T/C (second compound 10 µM, first compound 0.003 µM): 84.5%
viability, T/C [47]: 84.5%
viability, T/C [48]: 83.9%
viability, T/C [49]: 83.2%
viability, T/C [50]: 63.6%
